Source: patent publication US10450295B2, “Method of using an indolinone molecule and derivatives for inhibiting liver fibrosis and hepatitis” (Acclaim BioMed USA LLC, priority 2013, dated 2019)
“Also recorded” adds a separate entry of the source.

How the values were obtained:
Assay type in all cases: cell-based, human
collagen type I = assay: Immunofluorescent staining of HSC cultures, collagen type I; conditions: 0.625 μM, 24-48 hours
Procedure: (§1) Human Hepatic Stellate cells (LX-2 cell line) (HSCs) were obtained from the Key Lab of Regenerative Medicine, Jinan University, Guangzhou, China, which were maintained in Dulbecco's Modified Eagle Medium (DMEM)+10% fetal calf serum and penicillin-streptomycin (100 unit/ml and 0.1 mg/ml, respectively), in 5% CO2 at 37° C. inside a humidified cell incubator. The culture medium was changed every three days. To test the effects of small molecule Hesperadin on the mouse and human HSCs, the cultures were treated with 0.625 μM of Hesperadin for 48 hrs. The cultures were then fixed in ice cold 70% ethanol and incubated in phosphate buffered saline with RNase (0.25 mg/ml), Propidium iodide dye (40 μg/ml) and 0.1% Triton X for an hour at room temperature. For cell cycle analysis, the Propidium iodide stained cells were examined using a flow cytometer (“BD LSRFortessa Cell Analyzer”). The proliferation of HSCs was also evaluated by the MTT staining assay with 3-(4,5-Dimethylthiazol-2-yl)-2,5-diphenyltetrazolium bromide). […] The absorbance (at 570 nm) was measured using a BIORAD 3550 Microplate Reader. […] After washing, the sections were viewed and recorded using a FluoView FV1000 Confocal microscope and/or a Nikon i80 microscope respectively to identify the presence of HSC expressing collagens. The positive staining of Collagen types I, III and IV was analyzed with the Metamorph software.

collagen type III = assay: Immunofluorescent staining of HSC cultures, collagen type III; conditions: 0.625 μM, 24-48 hours
Procedure: as §1

collagen type IV = assay: Immunofluorescent staining of HSC cultures, collagen type IV; conditions: 0.625 μM, 24-48 hours
Procedure: as §1

[1] = system: collagen 3A1 gene expression; assay: Real-time RT-PCR in HSC, collagen 3A1; conditions: 0.625 μM, FIG. 8
Procedure: Human Hepatic Stellate cells (LX-2 cell line) (HSCs) were obtained from the Key Lab of Regenerative Medicine, Jinan University, Guangzhou, China, which were maintained in Dulbecco's Modified Eagle Medium (DMEM)+10% fetal calf serum and penicillin-streptomycin (100 unit/ml and 0.1 mg/ml, respectively), in 5% CO2 at 37° C. inside a humidified cell incubator. The culture medium was changed every three days. To test the effects of small molecule Hesperadin on the mouse and human HSCs, the cultures were treated with 0.625 μM of Hesperadin for 48 hrs. […] The proliferation of HSCs was also evaluated by the MTT staining assay with 3-(4,5-Dimethylthiazol-2-yl)-2,5-diphenyltetrazolium bromide). […] The absorbance (at 570 nm) was measured using a BIORAD 3550 Microplate Reader. […]
Collagen type-I, -III and -VI, MMP-2, MMP-9 and TIMP-1 gene expression was determined using quantitative real-time PCR. […] Quantitation of mRNA levels was performed using a SYBR® Premix Ex Taq™ Kit (Takara) in an Applied Biosystems 7900HT Fast Real-Time PCR System. To quantify the amount of specific mRNA in the samples, a standard curve was generated for each PCR run using four amounts of the cDNA synthesized from our HSC cultures and liver samples. […] Data was analyzed using a StatView software (Abacus Concepts Inc) with Student's t-test.

CCS(=O)(=O)Nc1ccc2c(c1)/C(=C(/Nc1ccc(CN3CCCCC3)cc1)c1ccccc1)C(=O)N2 [Hesperadin, (Z)—N-(2-oxo-3-(Phenyl(4-(piperidin-1-ylmethyl)phenylamino)methylene)indolin-5-yl)ethanesulfonamide]
collagen type I expression (immunofluorescence) (collagen type I): significantly inhibited; also recorded: inhibits the synthesis of collagen type I
collagen type III expression (immunofluorescence) (collagen type III): significantly inhibited; also recorded: inhibits the synthesis of collagen type III
collagen type IV expression (immunofluorescence) (collagen type IV): significantly inhibited; also recorded: inhibits the synthesis of collagen type IV
Collagen 3A1 mRNA expression [1]: confirmed by real-time RT-PCR analysis
